Molecules are shown by their SMILES.

The data set can be described thus: Human HepG2 cell viability assay in 384 well format. The class given is toxicity, cell-based. Set-up: dose 125 nL, time 70.5 hour; concentration not given beside the values. Conditions: HepG2 cells, read-out: Inhibition.

Consider `CC1CCCN(Cc2coc(-c3cccc(F)c3)n2)C1` (stereo not drawn), for which the cytotoxicity at 70.5 h is -5.26%. Consider `Cc1oncc1C(=O)NCc1ccnc(OCC(F)(F)F)c1`, for which the cytotoxicity at 70.5 h was 11%. To `NC(=O)c1cnn2c1NCC(CNCCOc1ccccc1)C2` (stereo not drawn) belongs -5.14%.

`CC(=O)NCc1ccc(C(=O)NC2CCc3nc(C)cn3C2)o1` (stereo not drawn): the cytotoxicity at 70.5 h was -3.32%. The value for `Cc1nc(CN2CCN(C(=O)NC(C)Cn3ccnc3)CC2)cs1` (stereo not drawn) was -0.978%. On to `COc1c(CNC(c2ccccc2)c2nccn2C)c(C)nn1C` (stereo not drawn), for which the cytotoxicity at 70.5 h was -0.0475%. The value for `COCC(=O)NC(C)Cc1ccc(Br)cc1` (stereo not drawn) was 2.28%; that for `Cc1cc(C)cc(C(=O)Nc2cn[nH]c2)c1` was -8.68%. The value for `COCC(=O)NC(C)Cc1cccc(Cl)c1` (stereo not drawn) was 5.75%.

On to `CCN(Cc1ccc2c(c1)OCO2)C(=O)c1cccnc1O`, for which the cytotoxicity at 70.5 h was -5.82%. The value for `CN(Cc1ccc(O)cc1)C(=O)NC1CCCN(c2ncccn2)C1` (stereo not drawn) was -3.14%. As for `CC1CCCN(C(=O)NCCCn2cncn2)C1` (stereo not drawn), the cytotoxicity at 70.5 h is -4.06%.

Turning to `CC(Cn1ccnc1)NC(=O)N1CCN(Cc2ccsc2)CC1` (stereo not drawn), the cytotoxicity at 70.5 h is -2.59%.

On to `CN1CCCC1CNC(=O)CCCOc1ccc(Cl)cc1` (stereo not drawn), for which the cytotoxicity at 70.5 h was -2.04%. To `O=C(CCc1nc2ccccc2[nH]1)N1CCCC(n2cccn2)C1` (stereo not drawn) belongs 2.61%; to `Cc1occc1C(=O)Nc1cnn(CCN2CCOCC2)c1`, 16.8%; to `O=C(CCS(=O)(=O)c1ccccc1)N1CCCC(n2cccn2)C1` (stereo not drawn), -2.57%.

`Cc1ccccc1C(=O)Nc1cnn(CCN2CCOCC2)c1`: the cytotoxicity at 70.5 h came out at 5.4%. To `CNc1nc(CNC(=O)Nc2ccccc2C(F)(F)F)cs1` belongs -2.38%. To `CNc1nc(CNC(=O)Nc2cccc(Cl)c2OC)cs1` belongs -3.54%. Regarding `Cc1nc(C2CCCN2CCS(C)(=O)=O)no1` (stereo not drawn), the cytotoxicity at 70.5 h came to 21.3%. Take `COc1ccc(CNCc2c(C(C)C)nn(C)c2OC)cn1`: the cytotoxicity at 70.5 h was -0.773%.

In the case of `CSCCCN1CCCC1c1noc(C(C)C)n1` (stereo not drawn), the cytotoxicity at 70.5 h was -0.353%. As to `CCCN(CCC)C(=O)CN(C)C1CCc2ccccc21` (stereo not drawn), the cytotoxicity at 70.5 h is -7.56%.

In the case of `CC(=O)N1CCCN(C(=O)CCOc2ccc(C(C)C)cc2)CC1`, the cytotoxicity at 70.5 h was determined as 21.2%. To `COc1ccc(CN2CCCN(C(=O)C(C)n3ccnc3)CC2)cc1` (stereo not drawn) belongs -4.32%. The value for `Fc1ccc(-c2nc(CNCCn3cccn3)cs2)cc1` was 0.385%; that for `CCS(=O)(=O)CCN1CCCC1c1noc(C)n1` (stereo not drawn) was -8.31%; that for `CC(=O)NCC1CCN(C(=O)CCOc2ccc(C(C)C)cc2)CC1` was -0.488%. The value for `COc1c(CNCc2ccc(N3CCCC3)nc2)c(C(C)C)nn1C` was -9.28%; that for `CC(C)c1ccc(OCCC(=O)N2CCCC(C(N)=O)C2)cc1` (stereo not drawn) was -5.32%; that for `CCn1c(CN2CCN(CCO)CC2)nc2c(F)cccc21` was -4.39%. Take `Cc1cccc(C(=O)NC(C)CN2CCCC2=O)n1` (stereo not drawn): the cytotoxicity at 70.5 h amounted to 21%. Turning to `CC(C(=O)N1CCN(Cc2ccc(C#N)cc2)CC1)n1ccnc1` (stereo not drawn), the cytotoxicity at 70.5 h was -0.223%.

Turning to `Cc1nc(-c2ccsc2)ccc1C(=O)NC(C)CN1CCOCC1` (stereo not drawn), the cytotoxicity at 70.5 h was -3.57%.

Consider `Cc1ccc(CC(=O)N2CCN(CC(O)C(C)(C)C)CC2)cn1` (stereo not drawn), for which the cytotoxicity at 70.5 h came out at 0.113%. The value for `Cc1ccc(CC(=O)N2CCN(CC(C)O)CC2)cn1` (stereo not drawn) was -5.27%; that for `CCNc1cc2c(nn1)CCN(C(=O)c1cccnc1N(C)C)C2` was -1.46%; that for `CCc1nc(C2CCCN2CCCSC)no1` (stereo not drawn) was -4.43%. The value for `Cc1ccccc1SCC(=O)NS(=O)(=O)c1ccc2c(c1)OCCO2` was -2.48%; that for `CSCC(=O)NS(=O)(=O)c1ccc2c(c1)OCCO2` was 0.628%. `Cc1csc(CNCc2c(C)nn(C)c2N2CCOCC2)n1`: the cytotoxicity at 70.5 h is -0.213%. Take `COC(=O)c1cc(C(=O)N2CCCC(C)C2)n(-c2ccccc2)n1` (stereo not drawn): the cytotoxicity at 70.5 h is -10.2%.

Turning to `Cc1nc(C)n(CC2CCCN2Cc2nc(-c3ccoc3)no2)n1` (stereo not drawn), the cytotoxicity at 70.5 h is -11.7%. To `COc1ccccc1COCC(O)CN1CC(n2cccn2)C1` (stereo not drawn) belongs -10.8%; to `CC(C)c1nnc2n1CCN(Cc1ncc(-c3ccccc3)o1)C2`, -10.5%. As for `Cc1cc(C)n(CC2CN(CC(=O)Nc3c(C)n[nH]c3C)CCO2)n1` (stereo not drawn), the cytotoxicity at 70.5 h was -8.05%. Turning to `O=c1oc(-c2ccc(F)cc2)nn1CN1CCN(C2CCCC2)CC1`, the cytotoxicity at 70.5 h is -9.32%. Consider `Cn1ccc(CN2CCC(c3ccccc3)CC2)cc1=O`, for which the cytotoxicity at 70.5 h is -8.13%. As to `c1ccc(-c2nc(CNC3CCc4ncnn4C3)co2)cc1` (stereo not drawn), the cytotoxicity at 70.5 h amounted to 1.4%.

As for `Cc1cc(C[S+]([O-])CC(=O)Nc2c(C)cccc2C)no1` (stereo not drawn), the cytotoxicity at 70.5 h is -8.27%. The value for `Cc1cc(C[S+]([O-])CC(=O)NCc2cccs2)no1` (stereo not drawn) was -4.91%; that for `COc1ccc(-c2nc(CN3CCCC3Cn3cccn3)no2)cc1` (stereo not drawn) was -0.173%. With `CC(C(=O)NCc1ccc(N2CCNC(=O)C2)cc1)n1cncn1` (stereo not drawn), the cytotoxicity at 70.5 h came to 4.32%. As to `CC1CN(Cc2nccn2C)CCN1c1ccc2nncn2n1` (stereo not drawn), the cytotoxicity at 70.5 h was found to be 6.8%. To `COc1cccc(CN2CCN(c3ccc4nncn4n3)C(C)C2)c1` (stereo not drawn) belongs 9.6%. Regarding `Cc1cc(C(=O)NCCN2CCCC(C)C2)nn1C` (stereo not drawn), the cytotoxicity at 70.5 h is -5.9%. The value for `CC(C)(C)c1cnc(CN2CCC[C@H]2CO)o1` was 0.665%; that for `CCc1csc(C2CCCN(C(=O)C3=NN(CC)C(=O)CC3)C2)n1` (stereo not drawn) was 3.39%; that for `CC(C)(C)c1nc(CN2CCCC2CCc2ccccc2)no1` (stereo not drawn) was 13.1%. The value for `COc1c(C2CCCN2C(=O)c2csc(C(C)C)n2)c(C)nn1C` (stereo not drawn) was -12.3%; that for `CC(C)c1nc(C2CCCN2CCc2ccncc2)no1` (stereo not drawn) was 16.2%. The value for `Cc1nc(C)n(C2CCCN(C(=O)CCCOc3ccccc3)C2)n1` (stereo not drawn) was 3.66%. As for `Cc1cnn(C2CN(Cc3nc(C(C)(C)C)no3)C2)c1`, the cytotoxicity at 70.5 h is 20.7%. For `CCn1cnnc1CNC(=O)N1CCN(c2cccc(OC)c2)CC1`, the cytotoxicity at 70.5 h is -6.51%. `CCOC(=O)N1CCN(Cc2ccc(OCc3nccn3C)cc2)CC1`: the cytotoxicity at 70.5 h came out at 1.77%. The value for `Cn1ncc2c(=O)[nH]c(CN(Cc3cccc(F)c3)C3CC3)nc21` was 1.56%; that for `COc1ccccc1C(O)CNCc1c(C(C)C)nn(C)c1N(C)C` (stereo not drawn) was 13.7%. The value for `COC(=O)c1cccn1C1CCN(C(=O)c2cc(C)ccc2O)CC1` was 2.48%; that for `COC(=O)c1cccn1C1CCN(C(=O)c2cc(F)ccc2F)CC1` was -1.51%; that for `CC(C)Cc1cc(NC(=O)c2ccc(=O)[nH]n2)n(C)n1` was -2.14%. The value for `Cc1ccc(N(C)C2CCN(C(=O)c3ccsc3)CC2)nn1` was -13.8%; that for `Cc1ccc(NC2CCN(C(=O)c3cccn3C)CC2)nn1` was 32.5%; that for `Cc1ccc(NC2CCN(C(=O)c3ccsc3)CC2)nn1` was -3.84%. For `CCc1nccn1C1CCCN(C(=O)c2ccc3nncn3c2)C1` (stereo not drawn), the cytotoxicity at 70.5 h was -6.04%. To `NC(=O)c1cc(C2CCCN(C(=O)CCc3ccsc3)C2)n[nH]1` (stereo not drawn) belongs -2.62%; to `CCn1cc(CN2CCCN(C(=O)CCCn3cncn3)CC2)cn1`, 1.08%; to `CCc1cnc(CNc2ccc(C(=O)N3CCCC(C)C3)cc2C)o1` (stereo not drawn), -10.4%. `O=C(CCc1cscn1)N1CCCC(c2ccn[nH]2)C1` (stereo not drawn): the cytotoxicity at 70.5 h is -8.08%. As for `CN(Cc1nc(N)c2ccccc2n1)C1CCCN(c2cccnn2)C1` (stereo not drawn), the cytotoxicity at 70.5 h is -5.77%. The value for `CCc1nccn1C1CCCN(C(=O)c2ccc3c(c2)OCO3)C1` (stereo not drawn) was -6.7%; that for `Cc1cc(C(=O)N2CCCCC2C)ccc1NCCCO` (stereo not drawn) was -17.1%; that for `CCN(C(=O)CN(C)C(c1cccc(F)c1)c1ccccn1)C1CC1` (stereo not drawn) was -5.47%.

With `Cc1nn(C)c(C)c1C1COCCN1C(=O)c1cnc(N)c(Cl)c1` (stereo not drawn), the cytotoxicity at 70.5 h is -3.52%. To `Cc1cccc(CC(=O)NCCCOC(C)C)c1` belongs -10.5%.

Regarding `CCOCC(O)CN1CCN(C(=O)c2ccc(OC)cc2F)CC1` (stereo not drawn), the cytotoxicity at 70.5 h was -21.8%.

With `Cc1nc(C2CCCN(C(=O)CCCn3cccn3)C2)no1` (stereo not drawn), the cytotoxicity at 70.5 h is -11.8%. The value for `Cc1noc(CN2CCN(Cc3cccs3)CC2)n1` was -25.4%.

For the molecule `CNS(=O)(=O)Cc1ccc(CNc2cncc(-n3cccn3)n2)cc1`, the cytotoxicity at 70.5 h was -18.1%.

With `CN(Cc1ccsc1)C(=O)c1cccc(NS(C)(=O)=O)c1`, the cytotoxicity at 70.5 h was -7.22%. To `Cc1cccc(CS(=O)(=O)CC(=O)NCCCOC(C)C)c1` belongs 16.8%; to `COc1ccccc1CC(=O)NS(C)(=O)=O`, -10.7%. For `CC(NC(=O)NCCCN(C)C)c1ccc2c(c1)CCC(=O)N2` (stereo not drawn), the cytotoxicity at 70.5 h was -10.2%. To `Cc1ccc(CNC(=O)NCc2cccnc2N(C)C)s1` belongs -14.6%; to `CC(NC(=O)NCc1cc[nH]n1)c1ccc2c(c1)CCC(=O)N2` (stereo not drawn), -19.8%. The value for `O=C(O)c1cc(NS(=O)(=O)c2cccc(Cl)c2F)ccc1Cl` was -5.66%. The value for `COC(=O)C(NC(=O)COC1CCCC1)c1cc(F)ccc1F` (stereo not drawn) was -11.6%.

For the molecule `COc1cc(CN(C(=O)Nc2cccnc2OC)C2CC2)ccc1O`, the cytotoxicity at 70.5 h was -19.7%. Take `CCOCC(O)CN1CCN(C(=O)c2cc(F)ccc2C)CC1` (stereo not drawn): the cytotoxicity at 70.5 h was -18.9%.

Turning to `Cc1cnc(CNC(=O)NCc2cccnc2N(C)C)s1`, the cytotoxicity at 70.5 h was -17.2%. The value for `O=C(O)c1c[nH]c2cc(NS(=O)(=O)c3cccc(Cl)c3F)ccc12` was -10.1%; that for `COc1ccccc1CC(=O)NS(=O)(=O)c1cncc(Br)c1` was 4.46%. As to `Cc1cnn(CCNCC(=O)NCCOc2ccccc2)c1`, the cytotoxicity at 70.5 h came out at 39.9%.

Values taken from ChEMBL document CHEMBL3507680, “University of Dundee, Gates Library screen for HepG2 cell viability”.
